These results are taken from patent US9822157B2 (priority 2013, dated 2017).

The target in one data set is T1, human ferroportin (Homo sapiens, UniProt Q9NP59).
T1 sequence (Q9NP59 1-571): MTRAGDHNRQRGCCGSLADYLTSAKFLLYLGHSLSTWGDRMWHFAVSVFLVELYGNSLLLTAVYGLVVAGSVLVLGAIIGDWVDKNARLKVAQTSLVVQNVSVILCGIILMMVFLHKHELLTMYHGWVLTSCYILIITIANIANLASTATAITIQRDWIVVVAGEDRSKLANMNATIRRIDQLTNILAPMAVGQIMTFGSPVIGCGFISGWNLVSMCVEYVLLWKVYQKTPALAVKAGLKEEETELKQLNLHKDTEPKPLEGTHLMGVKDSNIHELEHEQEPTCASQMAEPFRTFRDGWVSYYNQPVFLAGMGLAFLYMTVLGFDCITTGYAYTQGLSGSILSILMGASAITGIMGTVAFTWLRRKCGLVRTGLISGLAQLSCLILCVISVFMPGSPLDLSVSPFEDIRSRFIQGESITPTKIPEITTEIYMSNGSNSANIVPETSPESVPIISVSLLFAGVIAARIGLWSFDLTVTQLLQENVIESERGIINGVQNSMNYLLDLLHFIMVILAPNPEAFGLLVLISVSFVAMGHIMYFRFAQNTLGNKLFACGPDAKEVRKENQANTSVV
The format is cell-based. The text has this:
The cDNA encoding the human ferroportin (SLC40A1) was cloned from a cDNA clone from Origene (NM_014585). The DNA encoding the ferroportin was amplified by PCR using primers also encoding terminal restriction sites for subcloning, but without the termination codon. The ferroportin receptor was subcloned into a mammalian GFP expression vector containing a neomycin (G418) resistance marker in such that the reading frame of the ferroportin was fused in frame with the GFP protein. The fidelity of the DNA encoding the protein was confirmed by DNA sequencing. HEK293 cells were used for transfection of the ferroportin-GFP receptor expression plasmid. The cells were grown according to standard protocol in growth medium and transfected with the plasmids using Lipofectamine (manufacturer's protocol, Invitrogen). […] The cells were propagated and frozen in aliquots.
A retro inverse peptide is a peptide with a reversed sequence in all D amino acids. […] The EC50 of these reference compounds for ferroportin degradation was determined according to the activity assay described above.

Data set [1] in a line: Stability in human serum (LC-MS). The format is in vitro ADME. To be noted: 10 μM peptide, 37 degrees C, up to 24 hours. The method, then: Serum stability experiments were undertaken to complement the in vivo results and assist in the design of potent, stable Ferroportin agonists. In order to predict the stability in humans, ex vivo stability studies were initially performed in human serum.
Samples were taken at various time points up to 24 hours. The samples were separated from serum proteins and analysed for the presence of the peptide of interest using LC-MS. The amount of intact peptide in each sample was calculated using the analyte peak area in relation to the zero time point.
The peptides were also tested for other pharmacokinetic/pharmacodynamic (PK/PD) parameters using methods commonly know by the skilled artisan. These parameters included determinations regarding stability (hours stable in plasma from the indicated human or rat subject), half-life in mice, and in vitro activity (EC50), tested as described in Example 2.

[2] abbreviates: Hepcidin analog peptides, read-out: Potency EC50.
The mark [3] stands for this setting: read-out: EC50 (nM) (n > 3), alanine scan of Compound 18.

Read-outs that look alike come from different tables or passages of the source.

Take “H-DTHFPICIFGPRSKGWACM-NH2 (cysteine pairing not given here) [Compound 47]”: the EC50 at human ferroportin (setting [2]) and at human ferroportin (setting [3]) was 313 nM each time. Moreover, the “t½” value in data set [1] is roughly 40 h.

Consider “H-DTHFPICIFGPRSKGWVCM-NH2 (cysteine pairing not given here) [Compound 18]”, for which the EC50 on human ferroportin (setting [2]) and at human ferroportin (setting [3]) was 125 nM in each case. In data set [1], the “t½” value stood at 2.32 h.

In general, EC50 refers to the midpoint of the concentration-response curve. A word on the t½: it is how long it takes for the measured level to halve.
